Reference: patent publication US12596125B2, “Nano-rheological biomarkers for early and improved follow-up of pathologies associated to RBC deformability alteration” (ALCEDIAG, priority 2019, dated 2026)
Where “and” joins values, the source holds several entries; their conditions need not be identical. Equal values may be shown once. One block for each compound: values may come before it.

Key:
[1] = Sensitivity of rotor fluorescence to pH and ionic strength (NaCl); type: physicochemical; conditions: 37 °C, rotor 15 μM; for dependency of fluorescence intensity on NaCl concentration (ionic strength): NaCl 0.1-200 mM, water-glycerol 50%-50%; for dependency of fluorescence intensity on pH: pH 3-8, citric acid/phosphate, water-glycerol 70%-30%
Text: (§1) The fluorescent response spectra of the rotors has been measured by varying four parameters • Viscosity, with water-glycerol solutions with increasing relative concentration (see FIGS. 2A-2D); • Electrostatic and ionic perturbations, with increasing NaCl concentration in a water-glycerol solution (50%-50%) (see FIG. 3A)); • pH, with buffered solutions Citric acid/Phosphate pH; 3<pH<8 in a water-glycerol solution (70%-30%) (see FIG. 3B); and • Molecular density and highly interacting (including hydrophobic) environment using a gradient BSA (bovine serum albumin) (see FIG. 4A-4D).
(§2) The pH was assayed from 3 (corresponding to the most acidic zones) to 8. For viscosity, we used literature data agreeing on apparent values in various cellular media, ranging from 1.5 mPa·s in the cytoplasm up to 140 mPa·s in the vesicles. In our studies, the MR concentration was set to 15 μM under the expected toxicity onset [Haidekker (2010a)]. One key remark, as any fluorescent molecule, signal intensity is also a function of its concentration. It is therefore very important to control the concentration of molecular rotor or, if when impossible, to be able to measure the concentration regardless of the viscosity.

[2] = Excitation-emission matrix (spectral response) of molecular rotors; type: physicochemical
Procedure: Excitation wavelength in abscissa, emission in ordinates, in nanometer (nm)). The rotors are diluted in a water/glycerol solution at a concentration 15 μM.
FIGS. 9a-9f: Excitation emission matrices of the molecular rotor DASPI, at temperature 25° C., at concentration 3.3 μM in (a) DMSO (η=2 mPa·s), (b) Ethylene glycol (η=13.5 mPa·s), (c) Glycerol (η=945 mPa·s) and (d,e) Hemoglobin in PBS (1000× dilution, different scale, η=1 mPa·s). The Fluorescence EEM of hemoglobin alone (f) was also measured to give evidence that there is no contribution of hemoglobin in the DASPI range of interest. […] In hemoglobin solutions however (d,e), the emission peak value is lower than in DMSO for similar viscosities because of the high absorbance of the solution.
The excitation-emission matrix of these 4 rotors, diluted in a glycerol/water solution (purely viscous fluid), have been measured using a SYNERGY H1 (Hybrid Multi-Mode reader, BioTek).
In a first step, fluorescence Excitation Emisson Matrices (EMMs) of DASPI were measured in selected solvents, at controlled temperature 25·C: DMSO, Ethylene Glycol, Glycerol and hemoglobin/PBS solutions (dilution 1000×). […] The Fluorescence EEM of hemoglobin alone (dilution 1000× in PBS) was also measured in the DASPI range of interest to give evidence that there is no contribution of hemoglobin in this range (f).

[3] = Fluorescence intensity as a function of viscosity (Förster-Hoffmann equation); type: physicochemical
Procedure: FIGS. 10a-10b: Emission peak intensity (fluorescence microscopy, excitation at 488 nm, emission 595±30 nm) of the molecular rotor DASPI at concentration 0.01 mM, 0.1 mM, 1 mM in (left) ethylene glycol/glycerol solutions and (right) aqueous glycerol solutions with increasing viscosity. The solutions temperature was fixed at T=X ° C. The fluorescence intensity increases with the solution viscosity according to the Förster-Hoffmann equation log φ=C+b log η, with solvent-dependent parameters b and C; Ethylene glycol/glycerol solutions: C=94,641,2206± and b=0.69±0.01 and aqueous glycerol solutions: C=74,344,1590± and b=0.70±0.01.
as §1, §2
The second step was to assess the sensitivity of DASPI to the local viscosity of the surrounding medium. More generally, fluorescent MRs photophysical sensitivity depends on their interaction with the environment, characterized by viscosity, polarity and solubility. […] Here we have investigated the DASPI emission intensity (fluorescence microscopy, excitation at 488 nm, emission at 595±30 nm) in ethylene glycol/glycerol solutions (viscosity between 10-200 mPa·s) and aqueous solutions of glycerol (viscosity between 2-200 mPa·s). In each solution, the relative concentration of both solvents was varied to adjust the viscosity of the resulting mixture, at temperature T=X° C. The viscosity was measured in situ by microrheology measurements, just before fluorescence intensity measurements. […]

[4] = biological target: T1, hemoglobin solutions (Homo sapiens, UniProt P68871+P69905); assay: Emission intensity of rotor in hemoglobin solutions of increasing viscosity; type: physicochemical; conditions: viscosity 3.4-9.2 mPa·s, temperature 17-34 °C
T1 construct: The RBC pellet was exposed to 3 freeze-thaw cycles (−80° C. to 37° C.) to lyse RBC membranes; from tissue; host or cells: red blood cells from blood samples (lysate, membranes extracted with CCl4)
Procedure: Red blood cells were washed three times in PBS buffer in order to prepare hemoglobin solutions from blood samples. After a final centrifugation at 1200 g for 10 min, all the supernatant was removed. The RBC pellet was exposed to 3 freeze-thaw cycles (−80° C. to 37° C.) to lyse RBC membranes. Membrane residues were then extracted by addition of CCl4 to the lysate (⅓ of the volume), strong agitation and ultra-centrifugation at 10000 g for 15 min. The hemoglobin concentration in the final solution was measured by colorimetry (MAK 115 Hemoglobin Assay Kit from Sigma-Aldrich).
We studied the emission intensity of tDASMP in hemoglobin solutions of increasing viscosity. The temperature of the sample was varied between 17° C. and 34° C.

[5] = tested on: red blood cells (RBCs); assay: Fluorescence of rotor in healthy and glutaraldehyde-stiffened red blood cells (confocal / epi-fluorescence microscopy); type: cell-based; conditions: glutaraldehyde 0-2% per volume of cells; 0.4 mM rotor, 1 hour; excitation 488 nm, detection 565-625 nm
Procedure: FIG. 6: Left: Suspension of healthy red blood cells and red blood cells stiffened with glutaraldehyde, in a PBS solution, using confocal microscopy (×40 objective, excitation at 488 nm, detection between 542-626 nm). The molecular rotor tDASMP was introduced into the solution according the protocol described in Example 2.
As a next step towards the rheological characterization of RBCs with MRs, we then imaged a suspension of healthy and artificially rigidified RBCs (by incubation during 10 min in a 1% (v/v) Glutaraldehyde solution in PBS) treated with tDASMP. […] Confocal microscopy allows to measure fluorescence profiles across RBCs.
In a second step, a quantification of the fluorescence response as a function of the degree of rigidification of RBCs can be performed. […]
For visualization, samples were placed between a glass slide and coverslip separated by a 250 μm spacer and initially incubated in a PBS solution supplemented with 1% BSA (Bovine Serum Albumin, Sigma-Aldrich) to prevent RBC adhesion. Observation was made with a Leica microscope in epi-fluorescence mode with excitation at 488 nm and detection at 565-625 nm. Images recorded with a sCMOS fast camera (OrcaFlash4.0 v2+, Hamamatsu Photonics France S.A.R.L., Massy, France) allowed to measure the mean fluorescence intensity of RBCs rescaled by the background fluorescence level.

[6] = tested on: red blood cells (RBCs); assay: Penetration and localization of molecular rotor in red blood cells by confocal microscopy; type: cell-based; conditions: for penetration of the rotor into RBCs: healthy and rigidified RBCs
Procedure: FIG. 12: Bright field image and confocal z-stacks obtained using confocal microscopy (X40 objective, excitation at 488 nm, detection between 542-626 nm) for three healthy RBCs with different orientations in a 1 mM DASPI solution. The z position of the slices is indicated. […] The mean intensity was measured in the depicted color boxes and each data point corresponds to a confocal slice (0.5 μm distance). As a next step towards the rheological characterization of RBCs with MRs, we then imaged a suspension of healthy and artificially rigidified RBCs (by incubation during 10 min in a 1% (v/v) Glutaraldehyde solution in PBS) treated with […]. Healthy and rigidified RBC suspensions were mixed and the resulting suspension was observed using confocal microscopy with an excitation at 488 nm and detection between 546 nm and 626 nm. An image corresponding to the mid-cross section of the RBC after cells have sedimented on the bottom window of the observation chamber is shown in FIG. 6. […] Confocal microscopy allows to measure fluorescence profiles across RBCs. The localization of the DASPI molecular rotor in healthy red blood cells was studied by confocal microscopy. Confocal images were acquired during the slow sedimentation of the RBCs with different orientations in the observation microchannel. […] Beyond the membrane, in the cytosol, the signal from DASPI was homogeneous in the observation plane, regardless of the z-position and orientation of the cell. Confocal microscopy allows us to unambiguously separate the fluorescence response from the membrane and cytosol. In fact, as soon as the upper and lower membranes are out of the depth of field ( 600 nm), they no longer contribute to the field of vision. […] By scanning the different parts of the red blood cells, we measure that the DASPI fluorescence signal is present throughout the whole red blood cell, over a distance which corresponds approximately (given the depth of field) to the typical known sizes of the red blood cell: diameter 8 μm (b), thickness on the edge 3 μm (a), thickness in the biconcave zone 1 μm (a).

T1 sequence (P69905 2-142 limits assumed): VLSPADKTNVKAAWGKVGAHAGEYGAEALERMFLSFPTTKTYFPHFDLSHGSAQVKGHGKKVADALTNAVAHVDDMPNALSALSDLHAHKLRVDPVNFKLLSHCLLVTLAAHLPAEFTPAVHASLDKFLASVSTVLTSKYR
T1 sequence (P68871 2-147 limits assumed): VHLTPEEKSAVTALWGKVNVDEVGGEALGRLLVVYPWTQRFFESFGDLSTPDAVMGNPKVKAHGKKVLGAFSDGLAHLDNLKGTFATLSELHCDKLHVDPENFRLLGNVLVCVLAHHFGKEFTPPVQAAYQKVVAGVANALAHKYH

- dependency of fluorescence intensity on NaCl concentration (ionic strength) [1]: no significant dependency
- dependency of fluorescence intensity on pH [1]: no significant dependency
Structure (SMILES): N#C/C(=C\c1cc2c3c(c1)CCCN3CCC2)C(=O)O [CCVJ, Carboxycyanovinyl-Julolidine]

- dependency of fluorescence intensity on NaCl concentration (ionic strength) [1]: no significant dependency
- dependency of fluorescence intensity on pH [1]: no significant dependency
Structure (SMILES): N#CC(C#N)=Cc1cc2c3c(c1)CCCN3CCC2 [DCVJ, Dicyanovinyl-Julolidine]

- dependency of fluorescence intensity on NaCl concentration (ionic strength) [1]: no significant dependency
- dependency of fluorescence intensity on pH [1]: no significant dependency
- excitation/emission peaks ([2]; water/glycerol solution, rotor 15 μM): around 380/440 and 430/490
- excitation/emission peak following the Förster-Hoffmann equation ([3]; water-glycerol solutions, viscosity 1-200 mPa·s): 430/490
Structure (SMILES): Cc1ccc2c(c1)sc(-c1ccc(N(C)C)cc1)[n+]2C.[Cl-] [Tht, Thioflavine T]

- dependency of fluorescence intensity on NaCl concentration (ionic strength) [1]: no significant dependency
- dependency of fluorescence intensity on pH [1]: no significant dependency
- fluorescence excitation peak ([2]; DMSO, ethylene glycol, glycerol, hemoglobin/PBS, 25 °C, 3.3 μM): around 480 nm
- emission ([2]; rotor of Examples 1-2): 580-620 nm
- excitation peak ([2]; rotor of Examples 1-2): around 490 nm
- Förster-Hoffmann exponent b ([3]; aqueous glycerol solutions, excitation 488 nm, emission 595±30 nm): 0.70±0.01
- Förster-Hoffmann exponent b ([3]; both ethylene glycol/glycerol and glycerol/water solutions): around 0.7
- Förster-Hoffmann exponent b ([3]; ethylene glycol/glycerol solutions, excitation 488 nm, emission 595±30 nm): 0.69±0.01
Structure (SMILES): CN(C)c1ccc(C=Cc2cc[n+](C)cc2)cc1.[I-] [tDASMP, trans-4-[4-(Dimethylamino)styryl]-1-methylpyridinium iodide]
- fluorescence emission intensity versus viscosity of hemoglobin solutions [4]: increase in fluorescence emission intensity
- interference of excitation-emission spectrum with hemoglobin fluorescence ([2]; hemoglobin in PBS, 1000× dilution): does not interfere with the intrinsic hemoglobin fluorescent spectrum
- mean fluorescence intensity of RBCs versus RBC rigidity [5]: increasing function of RBC rigidity
- distribution of the rotor inside RBCs [6]: uniformly distributed throughout the volume of RBCs
- penetration of the rotor into RBCs [6]: able to cross the membrane and penetrate within the RBCs
- penetration of the rotor into RBCs ([6]; listed as DASPI): spontaneously penetrates into red blood cells
